Measurements: patent US20090215684A1, “Use of BPI Protein for Treatment of Diseases” (BRIDGE BIORESEARCH LIMITED, priority 2005, published 2009)
Where “and” joins values, the source holds several entries; their conditions need not be identical. Equal values may be shown once. Marks after values point to notes of the source that are not given here.

Columns and labels:
[1] = system: subjects with glucose intolerance; test: CIGMA (continuous infusion of glucose with model assessment) in the metformin study; format: in vivo, human; details: mean ± SD; for Achieved C-peptide / Achieved glucose / Achieved insulin: after intravenous glucose
Protocol: (§1) The clinical study was performed in accordance with the Declaration of Helsinki (revised version of Hong Kong 1989) as well as with the EC Note for guidance “Good clinical practice for studies on medicinal products in the European Community”. It was approved by the local Ethics Committee and the Spanish Health Department (Clinical assay number: 97/337). Thirty-one patients were randomized either to placebo or metformin according to the randomization tablets supply generated by LIPHA using the computer program RANCODE +3.1. A dietician with the aim of assuring a stable weight gave general diabetic dietary advice at the beginning of the study. Two months after the first visit (visit 2) subjects started taking metformin or placebo, one tablet per day (850 mg) for the first week and then two tablets per day (one after breakfast and one after dinner) for the following eleven weeks. Drug compliance was checked by tablet counts and any side effect was recorded at visit 3 (6 weeks after randomization) and at visit 4 (at the end of the study).
(§2) To assess glucose tolerance, an OGTT was performed after an overnight fast. Insulin sensitivity was evaluated by HOMA (Homeostasis model assessment) using basal (mean of three samples obtained at 5 minutes interval) glucose and insulin (Bonora E, et al., Diabetes Care, 2000, vol. 23, pp. 57-63). Beta cell function was calculated by CIGMA (Continuous infusion of glucose with model assessment) from achieved C-peptide and glucose values (Hosker J P, et al., Diabetologia 1985, vol. 28, pp. 401-11). CIGMA test consists of a continuous intravenous infusion of 5-mg glucose per kg of ideal body weight.min^−1 using a 10 g.dl^−1 glucose solution with model assessment of glucose, insulin and C-peptide (RIA, Byk-Sangtec Diagnostica, Dietzenbach, Germany) values obtained before (basal value, mean value of three samples obtained at 5 minute intervals) and at the end (achieved value, mean value of samples obtained at 50, 55 and 60 minutes) of the test. C-peptide detection level was 0.1 ng/ml and had intra- and inter-assay coefficients of variation of 2.6% and 4.4%.

BPI = test: Circulating plasma BPI (BPI ELISA) in the metformin study; format: in vivo, human
Protocol: BPI ELISA: Plasma EDTA BPI concentrations were measured by a sandwich enzyme-linked immunosorbent assay (Human BPI ELISA kit, HyCult biotechnology b.v.; P B Uden, The Netherlands) according to the manufacturer's instructions. The kit has an assay sensitivity of 250 pg/ml. […] The clinical study was performed in accordance with the Declaration of Helsinki (revised version of Hong Kong 1989) as well as with the EC Note for guidance “Good clinical practice for studies on medicinal products in the European Community”. It was approved by the local Ethics Committee and the Spanish Health Department (Clinical assay number: 97/337). Thirty-one patients were randomized either to placebo or metformin according to the randomization tablets supply generated by LIPHA using the computer program RANCODE +3.1. A dietician with the aim of assuring a stable weight gave general diabetic dietary advice at the beginning of the study. Two months after the first visit (visit 2) subjects started taking metformin or placebo, one tablet per day (850 mg) for the first week and then two tablets per day (one after breakfast and one after dinner) for the following eleven weeks. Drug compliance was checked by tablet counts and any side effect was recorded at visit 3 (6 weeks after randomization) and at visit 4 (at the end of the study).

[2] = system: subjects with glucose intolerance; test: Insulin sensitivity by HOMA (Homeostasis model assessment) in the metformin study; format: in vivo, human; details: mean ± SD
Protocol: as §1
as §2, with “C-peptide detection level was 0.1 ng/ml and had intra- and inter-assay coefficients of variation of 2.6% and 4.4%.” left out

[3] = system: subjects with glucose intolerance; test: Oral glucose tolerance test (OGTT) in the metformin study; format: in vivo, human; details: mean ± SD
Protocol: The clinical study was performed in accordance with the Declaration of Helsinki (revised version of Hong Kong 1989) as well as with the EC Note for guidance “Good clinical practice for studies on medicinal products in the European Community”. It was approved by the local Ethics Committee and the Spanish Health Department (Clinical assay number: 97/337). Thirty-one patients were randomized either to placebo or metformin according to the randomization tablets supply generated by LIPHA using the computer program RANCODE +3.1. A dietician with the aim of assuring a stable weight gave general diabetic dietary advice at the beginning of the study. […] Drug compliance was checked by tablet counts and any side effect was recorded at visit 3 (6 weeks after randomization) and at visit 4 (at the end of the study).
To assess glucose tolerance, an OGTT was performed after an overnight fast. Insulin sensitivity was evaluated by HOMA (Homeostasis model assessment) using basal (mean of three samples obtained at 5 minutes interval) glucose and insulin (Bonora E, et al., Diabetes Care, 2000, vol. 23, pp. 57-63). Beta cell function was calculated by CIGMA (Continuous infusion of glucose with model assessment) from achieved C-peptide and glucose values (Hosker J P, et al., Diabetologia 1985, vol. 28, pp. 401-11). […]

[4] = system: subjects with glucose intolerance; test: Randomized clinical study of metformin vs placebo in glucose-intolerant patients: anthropometric and fasting variables; format: in vivo, human; details: mean ± SD; for BMI: 9 patients
From the text: The objective of this study was to evaluate the effects of changing insulin action—after treatment with an insulin sensitizer (metformin)—on circulating BPI in subjects with glucose intolerance.
Patients were recruited from the Diabetes and Endocrinology Unit at Hospital de Girona Dr Josep Trueta. They were offered participation in the study if they were between 30 and 65 years old and fulfilled all the inclusion criteria. Men and women were both included, but women only when surgical sterility was documented or when they were post-menopausal or when a reliable method of contraception was used. The inclusion criteria were as follows: a) body mass index (BMI) between 22 and 35 kg/m^2, b) impaired glucose tolerance by an OGTT performed two months before the beginning of the study or a fasting glucose level between 110 and 140 mg/dl, c) stability of diet and physical exercise within the past two months. All subjects signed a written informed consent.
as §1
Out of 118 pre-selected subjects, 31 patients were randomized for the study (16 to metformin and 15 to placebo). Six patients ([…] and 3 on placebo) discontinued early and two non-compliant patients were excluded (both in metformin group). 21 patients (9 on metformin and 12 on placebo) were finally analyzed.

ob/ob mice = test: Effects of administration of BPI on blood glucose concentration in ob/ob mice; format: in vivo
Protocol: The objective of this study was to evaluate the effects of administration of BPI on glucose concentration on ob/ob mice
Obese mice ob/ob were treated for 6 days with a daily intraperitoneal dose of 2.5 ng of human purified BPI per gram of body weight or vehicle (control mice). Before the treatment both groups (control and BPI treated) presented a high glycemia and no differences were identified between both groups (342±33 and 342±38 mg/dl, respectively).

[5] = metformin, 12 weeks, p<0.05 within group
[6] = metformin, 12 weeks, p<0.05 within group, listed as metformin

With `CN(C)C(=N)N=C(N)N` [Metformin, metformin] the “Achieved C-peptide” value ([1]; metformin group, baseline) was 5.2 ± 1.2 ng/mL, the Achieved glucose ([1]; metformin group, baseline) was 190.5 ± 18.9 mg/dL and the Achieved insulin ([1]; metformin group, baseline) was 28.5 ± 13.5 mU/l. For the same molecule, the Achieved glucose ([1]; metformin, 12 weeks) was 174.6 ± 34.5 mg/dL, the Achieved insulin ([1]; metformin, 12 weeks) was 23.3 ± 7.6 mU/l and the “Achieved C-peptide” value [1, 5] was 4.2 ± 1.0^b ng/ml. The “Achieved C-peptide” value [1, 6] was “statistically lower”, the “CIGMA beta cell function” value ([1]; metformin group, baseline) was 82.8 ± 24.0% and the “CIGMA beta cell function” value ([1]; metformin, 12 weeks) was 90.9 ± 34.0%. The “CIGMA beta cell function” value ([1]; metformin, 12 weeks, listed as metformin) was “not modified”, the “BPI (circulating, plasma)” value (BPI; metformin group, baseline, median (interquartile range 1.26-7.73)) was 2.75 ng/mL and the “BPI (circulating, plasma)” value (BPI; metformin, 12 weeks, median (interquartile range 2.56-38.8), p = 0.017 within group) was 7.49 ng/mL. The “BPI (circulating, plasma)” value (BPI; metformin, 12 weeks, median (interquartile range 2.56-38.8), p = 0.017 within group, listed as metformin) was “significantly increased”, the HOMA sensitivity ([2]; metformin group, baseline) was 37.4 ± 15.2% and the HOMA sensitivity [2, 5] was 50.4 ± 23.2^b %. For the same molecule, the HOMA sensitivity [2, 6] was “improved”, the “120′ OGTT glucose” value ([3]; metformin group, baseline) was 162.2 ± 27.8 mg/dL and the “120′ OGTT glucose” value ([3]; metformin, 12 weeks) was 140.6 ± 42.9 mg/dL. The BMI ([4]; metformin 850 mg tablets, two per day, 12 weeks) was 27.7 ± 4.3 Kg/m^2, the BMI ([4]; metformin group, baseline (before treatment)) was 28.0 ± 4.5 Kg/m^2 and the “Fasting C-peptide” value ([4]; metformin group, baseline) was 2.5 ± 0.7 ng/mL. For the same molecule, the Fasting glucose ([4]; metformin group, baseline) was 110.1 ± 9.9 mg/dL, the Fasting insulin ([4]; metformin group, baseline) was 11.6 ± 5.4 mU/l and the Waist circumference ([4]; metformin group, baseline) was 95.9 ± 11.5. The Waist-to-hip ratio ([4]; metformin group, baseline) was 0.96 ± 0.1, the Waist circumference ([4]; metformin, 12 weeks) was 94.8 ± 9.4 and the Waist-to-hip ratio ([4]; metformin, 12 weeks) was 0.92 ± 0.07. For the same molecule, the Fasting glucose ([4]; metformin, 12 weeks, p<0.01 within group) was 98.9 ± 15.7^a mg/dl, the Fasting glucose ([4]; metformin, 12 weeks, p<0.01 within group, listed as metformin) was “decreased” and the “Fasting C-peptide” value [4, 5] was 1.8 ± 0.5^b ng/ml. For the same molecule, the Fasting insulin [4, 5] was 8.8 ± 3.5^b mU/l, the “Fasting C-peptide” value [4, 6] was “statistically lower” and the Fasting insulin [4, 6] was “statistically lower”.

B1: BPI: human purified bactericidal/permeability-increasing (BPI) protein, 456 residues, approximately 55 kD (protein, listed as Homo sapiens)
chain: VNPGVVVRISQKGLDYASQQGTAALQKELKRIKIPDYSDSFKIKHLGKGHYSFYSMDIREFQLPSSQISMVPNVGLKFSISNANIKISGKWKAQKRFLKMSGNFDLSIEGMSISADLKLGSNPTSGKPTITASSCSSHINSVHVHISKSKVGWLIQLFHKKIESALRNKMNSQVCEKVTNSVSSKLQPYFQTL
B1 was tested, and the “GLU (blood glucose concentration), Mean” value (ob/ob mice; BPI treated group, day 0 (before the treatment)) was 342 ± 38 mg/dL and 341.67 mg/dL, the “GLU (blood glucose concentration), Mean” value (ob/ob mice; daily intraperitoneal 2.5 ng human purified BPI per gram body weight, 3 days of treatment) was 289.00 mg/dL and the “GLU (blood glucose concentration), Mean” value (ob/ob mice; daily intraperitoneal 2.5 ng human purified BPI per gram body weight, 6 days of treatment) was 261 ± 21 mg/dL and 261.80 mg/dL. For the same molecule, the Effect on glycemia (ob/ob mice; treatment for 3 or 6 days with 2.5 ng/g BPI i.p. daily, vs control) was “pronounced decrease of glycemia”.
